US11419865B2, “Method for inducing a sustained immune response” (Cytocom Inc., priority 2016, dated 2022)

Experiments:
[1] = tested on: advanced pancreatic cancer; conditions: cited from earlier work
IBS patients = experiment: open-label study in forty-two IBS patients; type: in vivo, human
Description: Forty-two IBS patients participated in an open-label study. Participants received 0.5 mg PTI-901/day for 4 weeks and were evaluated during baseline, during treatment, and at 4-week follow-up. Patients recorded degree of abdominal pain, stool urgency, consistency, and frequency. Primary outcomes were number of pain-free days and overall symptom relief, evaluated by a global assessment score. Data were analyzed per protocol. Global assessment improved in 76% of 42 patients. During treatment, the mean weekly number of pain-free days increased from 0.5+/−1 to 1.25+/−2.14 (P=0.011).

Compound	Clinical benefit response, historical controls [1]	adverse reactions (IBS patients; 0.5 mg/day for 4 weeks)	patients with improved global assessment (IBS patients; 0.5 mg/day for 4 weeks, 42 patients)	mean weekly number of pain-free days during treatment (IBS patients; 0.5 mg/day, baseline 0.5+/−1, P=0.011)
O=c1[nH]cc(F)c(=O)[nH]1 [5-fluorouracil (5-FU), 5-fluorouracil]	4.8%			
Nc1ccn([C@@H]2O[C@H](CO)[C@@H](O)C2(F)F)c(=O)n1 [gemcitabine]	23.8%			
Cl.O=C1CC[C@@]2(O)[C@H]3Cc4ccc(O)c5c4[C@@]2(CCN3CC2CC2)[C@H]1O5 [PTI-901]		no significant adverse reactions	76%	1.25 ± 2.14 days
